Assays:
[1] = Inhibition of gamma-secretase-mediated amyloid beta-42 production in diluted 2B7 conditioned media after 5 hrs
[2] = Inhibition of gamma-secretase-mediated amyloid beta-40 production in diluted 2B7 conditioned media at 20 uM after 5 hrs
[3] = Inhibition of gamma-secretase-mediated amyloid beta-40 production in diluted 2B7 conditioned media at 4 uM after 5 hrs
[4] = Inhibition of gamma-secretase-mediated amyloid beta-40 production in diluted 2B7 conditioned media after 5 hrs

SMILES | IC50 [1] | inhibition [2] | inhibition [3] | IC50 [4]
C[C@@H]1C[C@H]([C@H](O)C(C)(C)O)O[C@H]2[C@H]1[C@@]1(C)CC[C@@]34C[C@@]35CC[C@H](O)C(C)(C)[C@@H]5CC[C@H]4[C@]1(C)[C@H]2O | > 10 µM |  |  | 
CC(=O)O[C@@H]([C@H]1C[C@@H](C)[C@H]2[C@H](O1)[C@H](O)[C@@]1(C)[C@@H]3CC[C@H]4C(C)(C)[C@@H](O[C@H]5CN(S(C)(=O)=O)CCO5)CC[C@@]45C[C@@]35CC[C@]21C)C(C)(C)O | 0.08 µM | 40% |  | 
CC(=O)O[C@@H]([C@H]1C[C@@H](C)[C@H]2[C@H](O1)[C@H](O)[C@@]1(C)[C@@H]3CC[C@H]4C(C)(C)[C@@H](O[C@H]5CN(Cc6ncc[nH]6)CCO5)CC[C@@]45C[C@@]35CC[C@]21C)C(C)(C)O | 0.12 µM |  | 38% | 
CC(=O)O[C@@H]([C@H]1C[C@@H](C)[C@H]2[C@H](O1)[C@H](O)[C@@]1(C)[C@@H]3CC[C@H]4C(C)(C)[C@@H](O[C@H]5CN(C6CCOCC6)CCO5)CC[C@@]45C[C@@]35CC[C@]21C)C(C)(C)O | 0.18 µM |  | 38% | 
COCCN1CCO[C@@H](O[C@H]2CC[C@]34C[C@]35CC[C@]3(C)[C@@H]6[C@H](O[C@@H]([C@H](OC(C)=O)C(C)(C)O)C[C@H]6C)[C@H](O)[C@@]3(C)[C@@H]5CC[C@H]4C2(C)C)C1 | 0.21 µM |  |  | 7.6 µM
CC(=O)O[C@@H]([C@H]1C[C@@H](C)[C@H]2[C@H](O1)[C@H](O)[C@@]1(C)[C@@H]3CC[C@H]4C(C)(C)[C@@H](O[C@H]5CN(CC(=O)N(C)C)CCO5)CC[C@@]45C[C@@]35CC[C@]21C)C(C)(C)O | 0.14 µM |  |  | 9 µM
CCN1CCO[C@@H](O[C@H]2CC[C@]34C[C@]35CC[C@]3(C)[C@@H]6[C@H](O[C@@H]([C@H](OC(C)=O)C(C)(C)O)C[C@H]6C)[C@H](O)[C@@]3(C)[C@@H]5CC[C@H]4C2(C)C)C1 | 0.19 µM |  | 42% | 
CC(=O)O[C@@H]([C@H]1C[C@@H](C)[C@H]2[C@H](O1)C(=O)[C@@]1(C)[C@@H]3CC[C@H]4C(C)(C)[C@@H](O[C@@H]5OC[C@@H](O)[C@H](O)[C@H]5O)CC[C@@]45C[C@@]35CC[C@]21C)C(C)(C)O | 0.6 µM |  |  | 
CC(=O)O[C@@H]([C@H]1C[C@@H](C)[C@H]2[C@H](O1)[C@H](O)[C@@]1(C)[C@@H]3CC[C@H]4C(C)(C)[C@@H](O[C@@H](CO)OCCO)CC[C@@]45C[C@@]35CC[C@]21C)C(C)(C)O | 0.1 µM |  |  | 
CC(=O)OC(C)(C)[C@H]1O[C@@]23O[C@@H]1C[C@@H](C)C2[C@@]1(C)CC[C@@]24C[C@@]25CC[C@H](O[C@@H]2OC[C@@H](O)[C@H](O)[C@H]2O)C(C)(C)[C@@H]5CC[C@H]4[C@]1(C)[C@H]3O (some centres undefined) | 3 µM |  |  | 
CC(=O)O[C@@H]([C@H]1C[C@@H](C)[C@H]2[C@H](O1)[C@H](O)[C@@]1(C)[C@@H]3CC[C@H]4C(C)(C)[C@@H](O[C@H]5CN(CC(N)=O)CCO5)CC[C@@]45C[C@@]35CC[C@]21C)C(C)(C)O | 0.15 µM |  |  | 7.8 µM
CC(=O)O[C@@H]([C@H]1C[C@@H](C)[C@H]2[C@H](O1)[C@H](O)[C@@]1(C)[C@@H]3CC[C@H]4C(C)(C)[C@@H](O[C@H]5CN(CCC(=O)O)CCO5)CC[C@@]45C[C@@]35CC[C@]21C)C(C)(C)O | 0.49 µM |  |  | 18.8 µM
CC(=O)O[C@@H]([C@H]1C[C@@H](C)[C@H]2[C@H](O1)[C@H](O)[C@@]1(C)[C@@H]3CC[C@H]4C(C)(C)[C@@H](O[C@H]5CN(CC(=O)O)CCO5)CC[C@@]45C[C@@]35CC[C@]21C)C(C)(C)O | 0.37 µM |  |  | 14 µM
CC(=O)O[C@@H]([C@H]1C[C@@H](C)[C@H]2[C@H](O1)[C@H](O)[C@@]1(C)[C@@H]3CC[C@H]4C(C)(C)[C@@H](O)CC[C@@]45C[C@@]35CC[C@]21C)C(C)(C)O | 0.6 µM |  |  | 
CC(=O)O[C@@H]([C@H]1C[C@@H](C)[C@H]2[C@H](O1)[C@H](O)[C@@]1(C)[C@@H]3CC[C@H]4C(C)(C)[C@@H](O[C@H]5CN(CCO)CCO5)CC[C@@]45C[C@@]35CC[C@]21C)C(C)(C)O | 0.24 µM |  | 46% | 
CC(=O)O[C@@H]([C@H]1C[C@@H](C)[C@H]2[C@H](O1)[C@H](O)[C@@]1(C)[C@@H]3CC[C@H]4C(C)(C)[C@@H](O[C@H]5CN(CCN6CCOCC6)CCO5)CC[C@@]45C[C@@]35CC[C@]21C)C(C)(C)O | 0.16 µM |  | 49% | 
CC(=O)O[C@@H]([C@H]1C[C@@H](C)[C@H]2[C@H](O1)[C@H](O)[C@@]1(C)[C@@H]3CC[C@H]4C(C)(C)[C@@H](O[C@H]5CN(C)CCO5)CC[C@@]45C[C@@]35CC[C@]21C)C(C)(C)O | 0.13 µM |  |  | 3.4 µM

SMILES | IC50 [1] | inhibition [2] | inhibition [3] | IC50 [4]
CC(=O)O[C@@H]([C@H]1C[C@@H](C)[C@H]2[C@H](O1)[C@H](O)[C@@]1(C)[C@@H]3CC[C@H]4C(C)(C)[C@@H](O[C@H]5CN([C@@H]6CCNC6=O)CCO5)CC[C@@]45C[C@@]35CC[C@]21C)C(C)(C)O | 0.12 µM | 44% |  | 
CC(=O)O[C@@H]([C@H]1C[C@@H](C)[C@H]2[C@H](O1)[C@H](O)[C@@]1(C)[C@@H]3CC[C@H]4C(C)(C)[C@@H](O[C@H]5CN([C@H]6CCNC6=O)CCO5)CC[C@@]45C[C@@]35CC[C@]21C)C(C)(C)O | 0.2 µM |  |  | 7 µM
CC(=O)O[C@@H]([C@H]1C[C@@H](C)[C@H]2[C@H](O1)[C@H](O)[C@@]1(C)[C@@H]3CC[C@H]4C(C)(C)[C@@H](O[C@H]5CN(C(C)=O)CCO5)CC[C@@]45C[C@@]35CC[C@]21C)C(C)(C)O | 0.09 µM |  |  | 13.4 µM
CC(=O)O[C@@H]([C@H]1C[C@@H](C)[C@H]2[C@H](O1)[C@H](O)[C@@]1(C)[C@@H]3CC[C@H]4C(C)(C)[C@@H](O[C@H]5CN(C6CC6)CCO5)CC[C@@]45C[C@@]35CC[C@]21C)C(C)(C)O | 1 µM | 35% |  | 
CC(=O)O[C@@H]([C@H]1C[C@@H](C)[C@H]2[C@H](O1)[C@H](O)[C@@]1(C)[C@@H]3CC[C@H]4C(C)(C)[C@@H](O[C@H]5CN(C(=O)c6ccno6)CCO5)CC[C@@]45C[C@@]35CC[C@]21C)C(C)(C)O | 0.07 µM |  |  | 4.8 µM
CC(=O)O[C@@H]([C@H]1C[C@@H](C)[C@H]2[C@H](O1)[C@H](O)[C@@]1(C)[C@@H]3CC[C@H]4C(C)(C)[C@@H](O[C@@H](CN(C)C)OCCN(C)C)CC[C@@]45C[C@@]35CC[C@]21C)C(C)(C)O | 2.4 µM |  |  | 
CC(=O)O[C@@H]([C@H]1C[C@@H](C)[C@H]2[C@H](O1)[C@H](O)[C@@]1(C)[C@@H]3CC[C@H]4C(C)(C)[C@@H](O[C@H]5CN(C(=O)c6cn(C)cn6)CCO5)CC[C@@]45C[C@@]35CC[C@]21C)C(C)(C)O | 0.13 µM | 44% |  | 
CC(=O)O[C@@H]([C@H]1C[C@@H](C)[C@H]2[C@H](O1)[C@H](O)[C@@]1(C)[C@@H]3CC[C@H]4C(C)(C)[C@@H](O[C@H]5CN(CC(F)(F)F)CCO5)CC[C@@]45C[C@@]35CC[C@]21C)C(C)(C)O | 1.19 µM | 47% |  | 
CC(=O)O[C@@H]([C@H]1C[C@@H](C)[C@H]2[C@H](O1)[C@H](O)[C@@]1(C)[C@@H]3CC[C@H]4C(C)(C)[C@@H](O[C@H]5CN(Cc6ccccc6)CCO5)CC[C@@]45C[C@@]35CC[C@]21C)C(C)(C)O | 2 µM |  | 4% | 
CC(=O)O[C@@H]([C@H]1C[C@@H](C)[C@H]2[C@H](O1)[C@H](O)[C@@]1(C)[C@@H]3CC[C@H]4C(C)(C)[C@@H](O[C@H]5CN(C(=O)CC6CC6)CCO5)CC[C@@]45C[C@@]35CC[C@]21C)C(C)(C)O | 0.13 µM | 38% |  | 
CC(=O)O[C@@H]([C@H]1C[C@@H](C)[C@H]2[C@H](O1)[C@H](O)[C@@]1(C)[C@@H]3CC[C@H]4C(C)(C)[C@@H](O[C@H]5CN(C(=O)C6(C)COC6)CCO5)CC[C@@]45C[C@@]35CC[C@]21C)C(C)(C)O | 0.08 µM |  |  | 8 µM
CC(=O)O[C@@H]([C@H]1C[C@@H](C)[C@H]2[C@H](O1)[C@H](O)[C@@]1(C)[C@@H]3CC[C@H]4C(C)(C)[C@@H](O[C@H]5CN(CC(C)(C)O)CCO5)CC[C@@]45C[C@@]35CC[C@]21C)C(C)(C)O | 0.23 µM |  |  | 9.4 µM
CC(=O)O[C@@H]([C@H]1C[C@@H](C)[C@H]2[C@H](O1)[C@H](O)[C@@]1(C)[C@@H]3CC[C@H]4C(C)(C)[C@@H](O[C@H]5CN(C(=O)N(C)C)CCO5)CC[C@@]45C[C@@]35CC[C@]21C)C(C)(C)O | 0.06 µM | 40% |  | 
C[C@@H]1C[C@H]([C@H](O)C(C)(C)O)O[C@H]2[C@H]1[C@@]1(C)CC[C@@]34C[C@@]35CC[C@H](O[C@@H]3OC[C@@H](O)[C@H](O)[C@H]3O)C(C)(C)[C@@H]5CC[C@H]4[C@]1(C)[C@H]2O | 3.1 µM |  |  | 
CC(=O)O[C@@H]([C@H]1C[C@@H](C)[C@H]2[C@H](O1)[C@H](O)[C@@]1(C)[C@@H]3CC[C@H]4C(C)(C)[C@@H](O[C@H]5CN(C6CCC6)CCO5)CC[C@@]45C[C@@]35CC[C@]21C)C(C)(C)O | 0.35 µM |  | 44% | 
CCCN1CCO[C@@H](O[C@H]2CC[C@]34C[C@]35CC[C@]3(C)[C@@H]6[C@H](O[C@@H]([C@H](OC(C)=O)C(C)(C)O)C[C@H]6C)[C@H](O)[C@@]3(C)[C@@H]5CC[C@H]4C2(C)C)C1 | 0.68 µM |  |  | 15.9 µM
